From patent US6828327B2, “Macroheterocylic compounds useful as kinase inhibitors” (Ortho-McNeil Pharmaceutical, Inc., priority 2000, dated 2004)

What was measured:
PKC α [1] = biological target: T1, PKC α (Homo sapiens, UniProt P17252); test: Biotinylated Peptide Substrate Assay, PKC α; format: biochemical; details: 10 μM ATP; >10 = no 50% inhibition at highest dose tested
Protocol: Biotinylated peptide substrates were selected from the literature as appropriate for the enzyme being evaluated.
Assay conditions vary slightly for each protein kinase, for example, insulin receptor kinase requires 10 mM MnCl2 for activity and Calmodulin-dependent protein kinase requires calmodulin and 10 mM CaCl2. […] Enzyme was diluted in 50 mM Tris-HCl pH=8.0, 0.1% BSA and added to each well. The reaction was incubated for one hour at 30° C. in the presence of compound. After one hour the reaction mix was aspirated from the plate and the plate was washed with PBS containing 100 mM EDTA. The plate was read on a scintillation counter to determine ^33P-γ-ATP incorporated into the immobilized peptide. […] A maximum and minimum signal for the assay was determined on each plate.

PKC α [2] = biological target: T1, PKC α; test: Protein Kinase C Scintillation Proximity Assay (SPA), PKC-α; format: biochemical; parameters: purchased PanVera, Madison Wis; host or cells: baculovirus expression vector; details: inhibition value, recombinant human isozyme, 1 μM ATP
Protocol: The binding activity of a compound for Protein Kinase C (PKC) was assessed using a homogeneous Scintillation Proximity Assay according to the procedure below.
The reaction was incubated for 15 min at 30° C. Reactions were terminated by the addition of streptavidin-coated SPA beads (Amersham) in a solution containing 1 mM EGTA, 10 mM EDTA and 100 μM ATP. Beads were allowed to settle overnight and the plates read in a Wallac MICROBETA scintillation counter (PerkinElmer Life sciences, Wellesley, Mass.).

L6 muscle cells = test: Cell-Based GSK 3-β Assay (glycogen content of L6 muscle cells); details: for 14C-Glucose Incorporation (dpm): L6 cells, 2 hours, 0.0 μM control Cpd 1 1640, Cpd 2 2078; for glycogen synthesis in L6 skeletal muscle cells: upon exposure to compound, result in words
Protocol: Glycogen content of L6 muscle cells was measured according to the method described in Berger and Hayes, Anal. Biochem., 1998, 261, 159-163.
Briefly, L6 cells were serum starved overnight in alpha-MEM containing 0.1%. On the following day, cells were washed three times with 300 μL KRPH buffer (150 mM NaCl, 5 mM KCl, 2.9 mM Na2HPO4, 1.25 mM MgSO4, 1.2 mM CaCl2, 10 mM HEPES, pH 7.4) and labeled with 200 μL alpha-MEM containing 5.5 mM ^14C-Glucose (0.1 μCi) in the presence of vehicle (DMSO) or compounds. After 2 hours, cells were washed three times with ice-cold PBS and glycogen was precipitated for 2 hours using ice-cold 66% EtOH. Precipitated glycogen was then washed three times with ice-cold 66% EtOH and ^14C-glycogen was quantified using a TopCount (Packard).
Compounds were tested in separate experiments at the dose levels shown. Where shown, the 0.0 μM dose was used as a control.

PKC α Kinase Assay (IC50 uM) (PKC α [1]) [µM] | IC50 (PKC α [2]) [µM] | Compound | 14C-Glucose Incorporation (dpm) (L6 muscle cells; dose 1 μM) | 14C-Glucose Incorporation (dpm) (L6 muscle cells; dose 3 μM) | 14C-Glucose Incorporation (dpm) (L6 muscle cells; dose 10 μM) | glycogen synthesis in L6 skeletal muscle cells (L6 muscle cells)
>10 | 1.21 | O=C1NC(=O)C2=C1c1cn(c3ccccc13)CCOCCOCCOCCn1cc2c2cccnc21 [Cpd 11] |  |  |  | 
 |  | O=C1NC(=O)C2=C1c1cn(c3ncccc13)CCOCCOCCOCCn1cc2c2cccnc21 [Cpd 1] | 1898 | 1958 | 2426 | increased glycogen synthesis
 |  | O=C1NC(=O)C2=C1c1cn(c3ncccc13)CCOCCOCCOCCOCCn1cc2c2cccnc21 [Cpd 2] | 2224 | 2518 | 2806 | increased glycogen synthesis
>10 | 5.36 | O=C1NC(=O)C2=C1c1cn(c3ccccc13)CCOCCOCCn1cc2c2cccnc21 [Cpd 10] |  |  |  | 
